Key:
Format in all cases: in vivo, rat
blood glucose = assay: Blood glucose after oral gavage in 24 h fasted rats (glucose oxidase kit); conditions: fasted 24 h, gavage of 0.736 M in 3 ml saline; for increase in blood glucose compared with saline and glucose groups: male rats, 0-150 min
Description: In the experiments performed and described herein, there were four groups of Spague Dawley type male rats, weighting approximately 300 g each, consisting of four (4) animals in each group. The animals were fed freely on standard rat chow and were then fasted for 24 hours. At the end of this period, said animals were lightly anaesthetized with nitrogen oxide and halothane, the body temperature being maintained with a heat lamp, and the femoral artery was cannulated, with a heparinized catheter and syringe, so that multiple blood samples could be obtained at serial time points. The test compounds were administered by gavaging the animals, said compounds having being dissolved in 3 ml of normal saline. The concentrations of the compounds administered to three groups of animals were: 0.736 M (550 mg in 3 ml of saline) of N-butyryl-D-glucosamine (designated as GlcNBu), or 0.736 M (398 mg in 3 ml of saline) of D-glucose (designated as Glc), or a combination of 0.736 M of GlcNBu and 0.736 M Glc dissolved together in 3 ml of saline. No compound was administered to the fourth group of animals (which consisted of a control group) and animals in this group were gavaged instead with 3 ml of normal saline.
Blood (0.4 ml) was collected at 10 min before the gavage (designated as −10 min in the accompanying FIG. 1), immedietly before the gavage (designated as 0 min) and at the following time points (timed in minutes after time 0) 5, 15, 30, 60, 90, 120 and 150, as shown in the accompanying figure. The glucose concentration in the blood was determined by a commercial glucose oxidase kit, designed for the determination of blood glucose in the blood of patients with diabetes. The determinations were done in triplicate for each time point and for each of the four animals in each of the four groups.
With reference to FIG. 1, each point of the graph represents the mean of the blood glucose concentrations obtained from the four rats in each group of animals. […]

[1] = Lean body mass and fat content by Dual Energy X-ray Absortiometry after 6 months daily oral feeding of control and ovariectomised rats; conditions: daily oral feeding 6 months (GlcNBu 200 mg/kg/day or equimolar Glc)
Description: In another experiment, there were four Groups of Sprague Dawley type female rats, with eight animals in each group, of approximately 250 g in weight. Two of the said groups underwent surgical ovariectomy and will be referred as the ovariectomised Groups (OVX). […] One C group and one OVX Group were fed GlcNBu, 200 mg/kg/day orally and one C group and one OVX Group were fed an equimolar amount of Glc daily. The daily feedings continued for all of the animals for a period of 6 months. At the end of the 6 month period the animals were euthanized, blood was obtained by cardiac puncture for glucose measurements, 24 hours after the administration of the Glc or GlcNBu, and their body fat and lean body mass was estimated, using a Hologic 4500 Dual Energy X-ray Absortiometry instrument, with small animal software.
It was previously known that ovariectomy increases the body weight and the fat content of animals undergoing this procedure. The results for the lean body mass and the fat content are shown in Table 1 and presented as the mean values±the standard deviations (SD) for each group of Animals.

[2] = Incorporation of radioactivity from radiolabelled GlcNBu into plasma glucose, glucosamine or N-acetylglucosamine (HPLC of acetonitrile-soluble plasma fraction); conditions: rats, oral or IP, plasma acetonitrile-soluble fractions up to 4 hour, amine column HPLC
Description: In order to test whether GlcNBu, in fact, was incorporated into serum glucose, or glucosamine, radiolabelled GlcNBu was prepared from [^3H] glucosamine and administered either orally or intra-peritoneally (IP) to rats, under identical conditions shown in FIG. 1. Plasma was sampled serially and plasma proteins were precipitated with acetonitrile and the radioactivity into the acetonitrile-soluble fraction containing GlcNBu metabolites was quantified. It can be seen that the radioactive profile from the oral administration of [^3H] GlcNBu is different than the glucose concentration profiles (FIG. 1). Acetonitrile-soluble fractions illustrated in FIG. 2, including the 4 hour time point were analyzed by HPLC, using an amine column and acetonitrile/water mixtures as the mobile phase (1 mL/min flow rate), Absorbance at 195 nm and radioactivity of 2 mL fractions were monitored. Radiolabelled and non-radiolabelled standards of GlcNBu, glucose, glucosamine, N-acetylglucosamine and various disaccharides were used as standards for the column. […] It is, therefore, unlikely that a significant proportion of orally fed GlcNBu is converted to glucose, glucosamine or N-acetylglucosamine, over the time course of the study. Also, glucose or glucosamine are not known to be converted into GlcNBu by animal tissues.

[3] = control (C, non-ovariectomised) female rats
[4] = ovariectomised (OVX) female rats

SMILES	blood glucose concentration rose from time 0 to (blood glucose; male Sprague Dawley rats, followed to 150 min, mean of 4 rats) [mmol/L]	Fat content (g, mean ± SD) [1, 3] [g]	Lean body mass (g, mean ± SD) [1, 3] [g]	Fat content (g, mean ± SD) [1, 4] [g]	Lean body mass (g, mean ± SD) [1, 4] [g]	increase in blood glucose compared with saline and glucose groups (blood glucose)	increase in blood glucose compared with saline and glucose groups (blood glucose; listed as N-butyryl-D-glucosamine)	incorporation of radioactivity into glucose, glucosamine or N-acetylglucosamine [2]
O=C[C@H](O)[C@@H](O)[C@H](O)[C@H](O)CO [Glc, D-glucose, reference compound]	~7	77.45 ± 21.0	283.93 ± 21.5	112.94 ± 30.9	296.87 ± 6.2			
CCCC(=O)N[C@H]1C(O)O[C@H](CO)[C@@H](O)[C@@H]1O (stereo partly drawn) [GlcNBu, N-butyryl-D-glucosamine]		74.57 ± 23.2	264.02 ± 12.1	126.08 ± 38.4	307.52 ± 34.0	higher than those gavaged with saline but lower than those rats gavaged with glucose	lower blood glucose	
CCCC(=O)N[C@H]1C(O)O[C@H](CO)[C@@H](O)[C@@H]1O (stereo partly drawn) [[^3H] GlcNBu]								no significant incorporation of radioactivity
